# From patent US20230293407A1, “Compositions Comprising (Bio)-Alkanediols with Antimicrobials for Product Protection” (Symrise AG, priority 2020, published 2023)
# Assays:
# Test in all cases: preservation efficacy test (PET), European Pharmacopoeia 5.1.3
# Format in all cases: cell-based
# [1] = tested on: Pseudomonas aeruginosa; settings: for PA germ count, 2 days / PA germ count, 7 days / PA germ count, 14 days / PA germ count, 28 days: substance at given % in test formulation
# [2] = tested on: Escherichia coli; settings: for EC germ count, 2 days / EC germ count, 7 days / EC germ count, 14 days / EC germ count, 28 days: substance at given % in test formulation
# [3] = tested on: Aspergillus brasiliensis; settings: for AB germ count, 7 days / AB germ count, 14 days / AB germ count, 28 days: substance at given % in test formulation
# [4] = tested on: Candida albicans; settings: for CA germ count, 2 days: 2 days after inoculation; for CA germ count, 2 days / CA germ count, 7 days / CA germ count, 14 days / CA germ count, 28 days: substance at given % in test formulation
# [5] = tested on: Staphylococcus aureus; settings: for SA germ count, 7 days / SA germ count, 14 days / SA germ count, 28 days / SA germ count, 2 days: substance at given % in test formulation
# [6] = 2 days after inoculation, o/w emulsion (Table 53)
# [7] = 7 days after inoculation, o/w emulsion (Table 53)
# [8] = 14 days after inoculation, o/w emulsion (Table 53)
# [9] = 28 days after inoculation, o/w emulsion (Table 53)
# [10] = 7 days after inoculation, listed as 0.1% 4-Hydroxyacetophenone
# [11] = 14 days after inoculation, listed as 0.1% 4-Hydroxyacetophenone
# [12] = 28 days after inoculation, listed as 0.1% 4-Hydroxyacetophenone
compound,measurement,setting,value
CCOC(=O)c1ccc(O)cc1 [0.1% Ethylparaben],"PA germ count, 2 days",[1]; 2 days after inoculation,1
same,"PA germ count, 7 days",[1]; 7 days after inoculation,1
same,"PA germ count, 14 days",[1]; 14 days after inoculation,1
same,"PA germ count, 28 days",[1]; 28 days after inoculation,1
same,"EC germ count, 2 days",[2]; 2 days after inoculation,440.000
same,"EC germ count, 7 days",[2]; 7 days after inoculation,62.000
same,"EC germ count, 14 days",[2]; 14 days after inoculation,280
same,"EC germ count, 28 days",[2]; 28 days after inoculation,390
same,"AB germ count, 7 days",[3]; 7 days after inoculation,630.000
same,"AB germ count, 14 days",[3]; 14 days after inoculation,800.000
same,"AB germ count, 28 days",[3]; 28 days after inoculation,730.000
same,"CA germ count, 2 days",[4],380.000
same,"CA germ count, 7 days",[4]; 7 days after inoculation,200.000
same,"CA germ count, 14 days",[4]; 14 days after inoculation,170.000
same,"CA germ count, 28 days",[4]; 28 days after inoculation,260.000
same,"SA germ count, 7 days",[5]; 7 days after inoculation,38.000
same,"SA germ count, 14 days",[5]; 14 days after inoculation,1
same,"SA germ count, 28 days",[5]; 28 days after inoculation,1
CC(=O)c1ccc(O)cc1 [0.1% 4-Hydroxyacetophenone (SymSave H)],"PA germ count, 2 days",[1]; 2 days after inoculation,1
same,"PA germ count, 7 days",[1]; 7 days after inoculation,1
same,"PA germ count, 14 days",[1]; 14 days after inoculation,1
same,"PA germ count, 28 days",[1]; 28 days after inoculation,1
same,"EC germ count, 7 days",[2]; 7 days after inoculation,87.000
same,"EC germ count, 14 days",[2]; 14 days after inoculation,2.400
same,"EC germ count, 28 days",[2]; 28 days after inoculation,1
same,"AB germ count, 7 days",[3]; 7 days after inoculation,680.000
same,"AB germ count, 14 days",[3]; 14 days after inoculation,58.000
same,"AB germ count, 28 days",[3]; 28 days after inoculation,18.000
same,"CA germ count, 7 days",[4]; 7 days after inoculation,81.000
same,"CA germ count, 14 days",[4]; 14 days after inoculation,120
same,"CA germ count, 28 days",[4]; 28 days after inoculation,1
same,"SA germ count, 2 days",[5]; 2 days after inoculation,210.000
same,"SA germ count, 7 days",[5]; 7 days after inoculation,1
same,"SA germ count, 14 days",[5]; 14 days after inoculation,1
same,"SA germ count, 28 days",[5]; 28 days after inoculation,1
CC(C)=CCC[C@](C)(O)[C@@H]1CC=C(C)CC1 [0.3% Dragosantol 100],"PA germ count, 2 days",[1]; 2 days after inoculation,1
same,"PA germ count, 7 days",[1]; 7 days after inoculation,1
same,"PA germ count, 14 days",[1]; 14 days after inoculation,1
same,"PA germ count, 28 days",[1]; 28 days after inoculation,1
same,"EC germ count, 2 days",[2]; 2 days after inoculation,120.000
same,"EC germ count, 7 days",[2]; 7 days after inoculation,200
same,"EC germ count, 14 days",[2]; 14 days after inoculation,1
same,"EC germ count, 28 days",[2]; 28 days after inoculation,1
same,"AB germ count, 7 days",[3]; 7 days after inoculation,880.000
same,"AB germ count, 14 days",[3]; 14 days after inoculation,620.000
same,"AB germ count, 28 days",[3]; 28 days after inoculation,660.000
same,"CA germ count, 2 days",[4],800.000
same,"CA germ count, 7 days",[4]; 7 days after inoculation,920.000
same,"CA germ count, 14 days",[4]; 14 days after inoculation,28.000
same,"CA germ count, 28 days",[4]; 28 days after inoculation,58.000
same,"SA germ count, 2 days",[5]; 2 days after inoculation,370.000
same,"SA germ count, 7 days",[5]; 7 days after inoculation,290
same,"SA germ count, 14 days",[5]; 14 days after inoculation,1
same,"SA germ count, 28 days",[5]; 28 days after inoculation,1
O=C([O-])CN(CCN(CC(=O)O)CC(=O)O)CC(=O)[O-].[Na+].[Na+] [0.2 % Disodium EDTA],count at 2 days,"[1]; PA, 2 days after inoculation, use concentration in label",1
same,count at 7 days,"[1]; PA, 7 days after inoculation, use concentration in label",1
same,count at 14 days,"[1]; PA, 14 days after inoculation, use concentration in label",1
same,count at 28 days,"[1]; PA, 28 days after inoculation, use concentration in label",1
same,count at 2 days,"[2]; EC, 2 days after inoculation, use concentration in label",330.000
same,count at 7 days,"[2]; EC, 7 days after inoculation, use concentration in label",85.000
same,count at 14 days,"[2]; EC, 14 days after inoculation, use concentration in label",85.000
same,count at 28 days,"[2]; EC, 28 days after inoculation, use concentration in label",1.800
same,count at 2 days,"[3]; AB, 2 days after inoculation, use concentration in label",990.000
same,count at 7 days,"[3]; AB, 7 days after inoculation, use concentration in label",590.000
same,count at 14 days,"[3]; AB, 14 days after inoculation, use concentration in label",590.000
same,count at 28 days,"[3]; AB, 28 days after inoculation, use concentration in label",330.000
same,count at 28 days,"[4]; CA, 28 days after inoculation, use concentration in label",810.000
same,count at 2 days,"[5]; SA, 2 days after inoculation, use concentration in label",530.000
same,count at 7 days,"[5]; SA, 7 days after inoculation, use concentration in label",49.000
same,count at 14 days,"[5]; SA, 14 days after inoculation, use concentration in label",49.000
same,count at 28 days,"[5]; SA, 28 days after inoculation, use concentration in label",2.500
"CC(=O)c1ccc(O)cc1 [4-Hydroxyacetophenone, reference compound]","germ count PA, 2 days",[1]; [6],1
same,"germ count PA, 7 days",[1]; [7],1
same,"germ count PA, 14 days",[1]; [8],1
same,"germ count PA, 28 days",[1]; [9],1
same,"number of microorganisms, 2 days","[1]; PET, Pseudomonas aeruginosa (PA), 2 days after inoculation",1
same,"number of microorganisms, 7 days","[1]; PET, Pseudomonas aeruginosa (PA), 7 days after inoculation",1
same,"number of microorganisms, 14 days","[1]; PET, Pseudomonas aeruginosa (PA), 14 days after inoculation",1
same,"number of microorganisms, 28 days","[1]; PET, Pseudomonas aeruginosa (PA), 28 days after inoculation",1
same,"germ count EC, 2 days",[2]; [6],110.000
same,"EC germ count, 2 days","[2]; 2 days after inoculation, listed as 0.1% 4-Hydroxyacetophenone",110.000
same,"germ count EC, 7 days",[2]; [7],290
same,"EC germ count, 7 days",[2]; [10],36
same,"germ count EC, 14 days",[2]; [8],27
same,"EC germ count, 14 days",[2]; [11],1
same,"germ count EC, 28 days",[2]; [9],1
same,"number of microorganisms, 2 days","[2]; PET, Escherichia coli (EC), 2 days after inoculation",110.000
same,"number of microorganisms, 7 days","[2]; PET, Escherichia coli (EC), 7 days after inoculation",290
same,"number of microorganisms, 14 days","[2]; PET, Escherichia coli (EC), 14 days after inoculation",27
same,"number of microorganisms, 28 days","[2]; PET, Escherichia coli (EC), 28 days after inoculation",1
same,"AB germ count, 28 days",[3]; [12],910.000
same,"germ count CA, 7 days",[4]; [7],170.000
same,"CA germ count, 7 days",[4]; [10],310.000
same,"germ count CA, 14 days",[4]; [8],130.000
same,"CA germ count, 14 days",[4]; [11],190.000
same,"germ count CA, 28 days",[4]; [9],55.000
same,"CA germ count, 28 days",[4]; [12],100.000
same,"number of microorganisms, 7 days","[4]; PET, Candida albicans (CA), 7 days after inoculation",170.000
same,"number of microorganisms, 14 days","[4]; PET, Candida albicans (CA), 14 days after inoculation",130.000
same,"number of microorganisms, 28 days","[4]; PET, Candida albicans (CA), 28 days after inoculation",55.000
same,"germ count SA, 7 days",[5]; [7],24.000
same,"SA germ count, 7 days",[5]; [10],78.000
same,"germ count SA, 14 days",[5]; [8],1
same,"germ count SA, 28 days",[5]; [9],1
same,"number of microorganisms, 7 days","[5]; PET, Staphylococcus aureus (SA), 7 days after inoculation",24.000
same,"number of microorganisms, 14 days","[5]; PET, Staphylococcus aureus (SA), 14 days after inoculation",1
same,"number of microorganisms, 28 days","[5]; PET, Staphylococcus aureus (SA), 28 days after inoculation",1
